Test results published in US20150105252A1, “SUBSTITUTED PYRAZOLES AS HERBICIDES” (E I DU PONT DE NEMOURS AND COMPANY, priority 2013, published 2015).

Legend:
foxtail, green = test: Test C preemergence; assay type: in vivo, Setaria viridis; conditions: for Plant response rating (scale of 0 to 100), Foxtail, Green: Preemergence, 250 g ai/ha; for Foxtail, Green plant response rating / Plant response rating, Foxtail, Green: preemergence; for Plant response rating, Foxtail, Green: 62 g ai/ha, scale 0 to 100, 0 = no effect, 100 = complete control
Description: (§1) Seeds of plant species selected from blackgrass (Alopecurus myosuroides), ryegrass, Italian (Italian ryegrass, Lolium multiflorum), wheat (winter wheat, Triticum aestivum), galium (catchweed bedstraw, Galium aparine), corn (Zea mays), crabgrass, large (large crabgrass, Digitaria sanguinalis), foxtail, giant (giant foxtail, Setaria faberii), johnsongrass (Sorghum halepense), lambsquarters (Chenopodium album), morningglory (Ipomoea coccinea), nutsedge, yellow (yellow nutsedge, Cyperus esculentus), pigweed (redroot pigweed, Amaranthus retroflexus), ragweed (common ragweed, Ambrosia elation), soybean (Glycine max), barnyardgrass (Echinochloa crus-galli), oilseed rape (Brassica napus), waterhemp (common waterhemp, Amaranthus rudis), oat, wild (wild oat, Avena fatua), kochia (Kochia scoparia), Surinam grass (Brachiaria decumbens), foxtail, green (green foxtail, Setaria viridis), goosegrass (Eleusine indica), bromegrass, downy (downy bromegrass, Bromus tectorum), nightshade (eastern black nightshade, Solanum ptycanthum), cocklebur (common cocklebur, Xanthium strumarium), cupgrass, woolly (woolly cupgrass, Eriochloa villosa), bermudagrass (Cynodon dactylon), sunflower, (common oilseed sunflower, Helianthus annuus), Russian thistle (Salsola kali), and velvetleaf (Abutilon theophrasti) were planted into a blend of loam soil and sand and treated preemergence with test chemicals formulated in a non-phytotoxic solvent mixture which included a surfactant.
(§2) At the same time, plants selected from these crop and weed species and also chickweed (common chickweed, Stellaria media), canarygrass (littleseed canarygrass, Phalaris minor), and deadnettle (henbit deadnettle, Lamium amplexicaule), were planted in pots containing Redi-Earth® planting medium (Scotts Company, 14111 Scottslawn Road, Marysville, Ohio 43041) comprising spaghnum peat moss, vermiculite, wetting agent and starter nutrients and treated with postemergence applications of test chemicals formulated in the same manner. Plants ranged in height from 2 to 18 cm (1- to 4-leaf stage) for postemergence treatments. Treated plants and controls were maintained in a greenhouse for 13 to 15 days, after which time all species were compared to controls and visually evaluated. Plant response ratings, summarized in Table C, are based on a scale of 0 to 100 where 0 is no effect and 100 is complete control. A dash (-) response means no test result.

deadnettle = test: Test C postemergence; assay type: in vivo, Lamium amplexicaule; conditions: for Deadnettle plant response rating: scale 0 to 100
Description: as §1, §2

windgrass = test: Test C postemergence; assay type: in vivo, Apera spica-venti; conditions: 250 g ai/ha, scale 0 to 100 (0 no effect, 100 complete control)
Surinam grass = test: Test C preemergence; assay type: in vivo, Brachiaria decumbens; conditions: for Plant response rating (scale of 0 to 100), Surinam Grass: Preemergence, 250 g ai/ha; for Surinam Grass plant response rating / Plant response rating, Surinam Grass: preemergence; for Plant response rating, Surinam Grass: 62 g ai/ha, scale 0 to 100, 0 = no effect, 100 = complete control
Description: as §1, §2

Italian ryegrass = test: Test A preemergence; assay type: in vivo, Lolium multiflorum
In short: (§3)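 Greenhouse test in loam soil/sand blend; compounds formulated in non-phytotoxic solvent with surfactant, applied as preemergence directed soil spray or postemergence to plants 2–10 cm tall at one- to two-leaf stage. Injury rated visually versus untreated controls after approximately 10 days on a 0 (no effect) to 100 (complete control) scale.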

kochia = test: Test A postemergence; assay type: in vivo, Kochia scoparia
In short: as §3

hairy beggarticks = test: Test F preemergence; assay type: in vivo, Bidens pilosa
Description: (§4) Seeds of plant species selected from corn (Zea mays), soybean (Glycine max), velvetleaf (Abutilon theophrasti), lambsquarters (Chenopodium album), wild poinsettia (Euphorbia heterophylla), pigweed, palmer (palmer pigweed, Amaranthus palmeri), common waterhemp (Amaranthus rudis), surinam grass (Brachiaria decumbens), large crabgrass (Digitaria sanguinalis), crabgrass, Brazil (Brazilian crabgrass, Digitaria horizontalis), fall panicum (Panicum dichotomiflorum), giant foxtail (Setaria faberii), green foxtail (Setaria viridis), goosegrass (Eleusine indica), johnsongrass (Sorghum halepense), common ragweed (Ambrosia elation), barnyardgrass (Echinochloa crus-galli), southern sandbur (Cenchrus echinatus), arrowleaf sida (Sida rhombifolia), Italian ryegrass (Lolium multiflorum), dayflower, VA (Virginia (VA) dayflower, Commelina virginica), field bindweed (Convolvulus arvensis), cocklebur (common cocklebur, Xanthium strumarium), morningglory (Ipomoea coccinea), nightshade (eastern black nightshade, Solanum ptycanthum), kochia (Kochia scoparia), yellow nutsedge (Cyperus esculentus), and hairy beggarticks (Bidens pilosa), were planted into a silt loam soil and treated preemergence with test chemicals formulated in a non-phytotoxic solvent mixture which included a surfactant.
(§5) At the same time, plants from these crop and weed species and also horseweed (Canada horseweed, Conyza canadensis), smartweed (ladysthumb smartweed, Polygonum persicaria), waterhemp_RES1, (ALS & Triazine resistant common waterhemp, Amaranthus rudis), and waterhemp_RES2, (ALS & HPPD resistant common waterhemp, Amaranthus rudis) were treated with postemergence applications of test chemicals formulated in the same manner. Plants ranged in height from 2 to 18 cm for postemergence treatments (1- to 4-leaf stage). Treated plants and controls were maintained in a greenhouse for 14 to 21 days, after which time all species were compared to controls and visually evaluated. Plant response ratings, summarized in Table F, are based on a scale of 0 to 100 where 0 is no effect and 100 is complete control. A dash (-) response means no test result.

johnsongrass = test: Test F preemergence; assay type: in vivo, Sorghum halepense
Description: as §4, §5

large crabgrass = test: Test F preemergence; assay type: in vivo, Digitaria sanguinalis
Description: as §4, §5

[1] = 31 g ai/ha, scale 0 to 100 (0 no effect, 100 complete control), 13 to 15 days
[2] = 125 g ai/ha, scale 0 to 100, 0 is no effect, 100 is complete control
[3] = postemergence, 250 g ai/ha, scale 0 to 100 (0 no effect, 100 complete control)
[4] = postemergence, 125 g ai/ha, scale 0 to 100, 0 no effect, 100 complete control
[5] = 125 g ai/ha, visual injury, 0 to 100 scale, approx. 10 days
[6] = 500 g ai/ha, visual injury after approx. 10 days, 0 to 100 scale (0 no effect, 100 complete control)
[7] = Postemergence, 500 g ai/ha, 0 to 100 scale (0 no effect, 100 complete control)
[8] = postemergence, 125 g ai/ha, about 10 days, visual rating on 0 to 100 scale (0 no effect, 100 complete control)
[9] = Preemergence, 31 g ai/ha, scale 0 to 100
[10] = Preemergence, 62 g ai/ha, scale 0 to 100
[11] = Preemergence, 125 g ai/ha, scale 0 to 100
[12] = preemergence, 8 g ai/ha, scale 0 to 100, 100 is complete control
[13] = preemergence, 16 g ai/ha, scale 0 to 100, 100 is complete control
[14] = Preemergence, 250 g ai/ha, scale 0 to 100

CCc1cc(C(=O)NOC(C)C)nn1Cc1cccc(OC(F)(F)F)c1 [Compound 70]
Plant response rating (scale of 0 to 100), Foxtail, Green (foxtail, green): 98
Foxtail, Green plant response rating (foxtail, green; [1]): 15
Plant response rating, Foxtail, Green (foxtail, green; 13 to 15 days): 95
Foxtail, Green plant response rating (foxtail, green; [2]): 95
Deadnettle plant response rating (deadnettle; Postemergence, 31 g ai/ha): 25
Plant response rating, Deadnettle (deadnettle; [3]): 90
Plant response rating, Deadnettle (deadnettle; postemergence, 62 g ai/ha, scale 0 to 100, 0 no effect, 100 complete control): 70
Plant response rating, Deadnettle (deadnettle; [4]): 70
Plant response rating, Windgrass (windgrass): 50
Plant response rating (scale of 0 to 100), Surinam Grass (Surinam grass): 85
Surinam Grass plant response rating (Surinam grass; [1]): 5
Plant response rating, Surinam Grass (Surinam grass; 13 to 15 days): 25
Surinam Grass plant response rating (Surinam grass; [2]): 65

Cc1cc(C(=O)NCC(F)(F)F)nn1Cc1ccnc(C(F)(F)F)c1 [Compound 74]
Plant response rating (scale of 0 to 100), Foxtail, Green (foxtail, green): 95
Foxtail, Green plant response rating (foxtail, green; [1]): 85
Plant response rating, Foxtail, Green (foxtail, green; 13 to 15 days): 95
Foxtail, Green plant response rating (foxtail, green; [2]): 95
Deadnettle plant response rating (deadnettle; Postemergence, 31 g ai/ha): 10
Deadnettle plant response rating (deadnettle; postemergence, 62 g ai/ha): 60
Plant response rating, Deadnettle (deadnettle; [3]): 80
Plant response rating, Deadnettle (deadnettle; [4]): 70
Plant response rating, Windgrass (windgrass): 5
Plant response rating (scale of 0 to 100), Surinam Grass (Surinam grass): 100
Surinam Grass plant response rating (Surinam grass; [1]): 15
Plant response rating, Surinam Grass (Surinam grass; 13 to 15 days): 50
Surinam Grass plant response rating (Surinam grass; [2]): 85

CCCNC(=O)c1cc(OCC)n(Cc2ccnc(OC(F)F)c2)n1 [Compound 136]
Italian Ryegrass plant response rating (Italian ryegrass; [5]): 30
Italian Ryegrass plant response rating (Italian ryegrass; [6]): 100
Kochia plant response rating (kochia; [7]): 90
Kochia plant response rating (kochia; [8]): 90

CCCNC(=O)c1cc(CC)n(Cc2cccc(OC(F)(F)F)c2)n1 [Compound 27]
Plant response rating, Windgrass (windgrass): 45

CCCc1cc(C(=O)NC2CC2)nn1Cc1ccnc(OC(F)F)c1 [Compound 205]
Italian Ryegrass plant response rating (0 to 100 scale) (Italian ryegrass; 125 g ai/ha, visual injury approx. 10 days after treatment): 50
Italian Ryegrass plant response rating (Italian ryegrass; [6]): 100
Kochia plant response rating (kochia; Postemergence, 125 g ai/ha, 0 to 100 scale, 0 no effect, 100 complete control): 90
Kochia plant response rating (kochia; [7]): 90

CCCc1cc(C(=O)NCC(F)(F)F)nn1Cc1ccnc(OC(F)F)c1 [Compound 127]
Italian Ryegrass plant response rating (Italian ryegrass; [5]): 40
Italian Ryegrass plant response rating (Italian ryegrass; [6]): 90
Kochia plant response rating (kochia; [7]): 100
Kochia plant response rating (kochia; [8]): 90

CCc1cc(-c2ccc(C(F)(F)F)cc2)nn1Cc1ccnc(C(F)(F)F)c1 [Compound 110]
Plant response rating, Hairy Beggarticks (hairy beggarticks; [9]): 35
Plant response rating, Hairy Beggarticks (hairy beggarticks; [10]): 30
Plant response rating, Hairy Beggarticks (hairy beggarticks; [11]): 50
Plant response rating, Hairy Beggarticks (hairy beggarticks; [12]): 50
Plant response rating, Hairy Beggarticks (hairy beggarticks; [13]): 35
Plant response rating, Johnsongrass (johnsongrass; [9]): 15
Plant response rating, Johnsongrass (johnsongrass; [10]): 25
Plant response rating, Johnsongrass (johnsongrass; [11]): 80
Plant response rating, Johnsongrass (johnsongrass; [12]): 0
Plant response rating, Johnsongrass (johnsongrass; [13]): 0
Plant response rating, Large Crabgrass (large crabgrass; [9]): 10
Plant response rating, Large Crabgrass (large crabgrass; [10]): 75
Plant response rating, Large Crabgrass (large crabgrass; [11]): 85
Plant response rating, Large Crabgrass (large crabgrass; [12]): 5
Plant response rating, Large Crabgrass (large crabgrass; [13]): 5

CCCc1cc(C(=O)NC(C)C)nn1Cc1cc(C(F)(F)F)nn1C [Compound 201]
Plant response rating, Hairy Beggarticks (hairy beggarticks; [10]): 20
Plant response rating, Hairy Beggarticks (hairy beggarticks; [11]): 35
Plant response rating, Hairy Beggarticks (hairy beggarticks; [14]): 40
Plant response rating, Hairy Beggarticks (hairy beggarticks; [13]): 0
Plant response rating, Johnsongrass (johnsongrass; [10]): 25
Plant response rating, Johnsongrass (johnsongrass; [11]): 80
Plant response rating, Johnsongrass (johnsongrass; [14]): 95
Plant response rating, Johnsongrass (johnsongrass; [13]): 0
Plant response rating, Large Crabgrass (large crabgrass; [10]): 70
Plant response rating, Large Crabgrass (large crabgrass; [11]): 100
Plant response rating, Large Crabgrass (large crabgrass; [14]): 100
Plant response rating, Large Crabgrass (large crabgrass; [13]): 0
Plant response rating, Large Crabgrass (large crabgrass; preemergence, scale 0 to 100, 100 is complete control): 35

CCc1cc(C(=O)NOC(C)C)nn1Cc1ccnc(OC(F)F)c1 [Compound 126]
Italian Ryegrass plant response rating (Italian ryegrass; [5]): 90
Italian Ryegrass plant response rating (Italian ryegrass; [6]): 100
Kochia plant response rating (kochia; [7]): 100
Kochia plant response rating (kochia; [8]): 100

CCc1cc(C(=O)NCC(F)(F)F)nn1Cc1ccnc(Br)c1 [Compound 224]
Plant response rating, Hairy Beggarticks (hairy beggarticks; [10]): 0
Plant response rating, Hairy Beggarticks (hairy beggarticks; [11]): 0
Plant response rating, Hairy Beggarticks (hairy beggarticks; [14]): 10
Plant response rating, Johnsongrass (johnsongrass; [10]): 0
Plant response rating, Johnsongrass (johnsongrass; [11]): 35
Plant response rating, Johnsongrass (johnsongrass; [14]): 75
Plant response rating, Large Crabgrass (large crabgrass; [10]): 98
Plant response rating, Large Crabgrass (large crabgrass; [11]): 100
Plant response rating, Large Crabgrass (large crabgrass; [14]): 100

CCOc1cc(C(=O)NCC(F)(F)F)nn1Cc1ccnc(OC(F)F)c1 [Compound 128]
Italian Ryegrass plant response rating (Italian ryegrass; [5]): 30
Italian Ryegrass plant response rating (Italian ryegrass; [6]): 100
Kochia plant response rating (kochia; [7]): 90
Kochia plant response rating (kochia; [8]): 90

CCONC(=O)c1cc(CC)n(Cc2cccc(OC(F)(F)F)c2)n1 [Compound 72]
Plant response rating (scale of 0 to 100), Foxtail, Green (foxtail, green): 98
Foxtail, Green plant response rating (foxtail, green; [1]): 30
Plant response rating, Foxtail, Green (foxtail, green; 13 to 15 days): 85
Foxtail, Green plant response rating (foxtail, green; [2]): 90
Deadnettle plant response rating (deadnettle; Postemergence, 31 g ai/ha): 40
Deadnettle plant response rating (deadnettle; postemergence, 62 g ai/ha): 40
Plant response rating, Deadnettle (deadnettle; [3]): 70
Plant response rating, Deadnettle (deadnettle; [4]): 40
Plant response rating, Windgrass (windgrass): 30
Plant response rating (scale of 0 to 100), Surinam Grass (Surinam grass): 75
Surinam Grass plant response rating (Surinam grass; [1]): 10
Plant response rating, Surinam Grass (Surinam grass; 13 to 15 days): 15
Surinam Grass plant response rating (Surinam grass; [2]): 65

CCc1cc(C(=O)NCC(F)(F)F)nn1Cc1cccc(OC(F)(F)F)c1 [Compound 20]
Plant response rating, Windgrass (windgrass): 45
